Source: article PMC7587369, “Antitumor Activity of Ruthenium(II) Terpyridine Complexes towards Colon Cancer Cells In Vitro and In Vivo” (Molecules, 2020)

Legend:
CT26 cells [1] = test: Cell cycle analysis, CT26; type: cell-based, mouse; details: CT26, IC50 doses, 24 h
Procedure: (§1) Both the apoptosis induction and/or cell cycle arrest may reduce the viability of carcinoma cells. Thus, we next investigated the impact of ruthenium(II) terpyridine complexes on possible cell cycle disturbances in colon carcinoma cells.
(§2) Cell cycle analysis was performed with a Vybrant® DyeCycle™ Ruby stain (Thermo Fisher Scientific, Waltham, MA, USA) according to the manufacturer’s instructions. CT26, HCT116, and SW480 cells stained with Vybrant DyeCycle Ruby were analyzed by a Fluorescence-activated cell sorting (FACS) Calibur flow Cytometer (BD Biosciences, San Jose, CA, USA). The cell cycle distribution was analyzed using FlowJo software and the results were presented as histograms.

[2] = tested on: CT26 (mouse colon carcinoma cell line); test: MTT assay cytotoxicity, CT26; type: cell-based
Procedure: (§3) Oxaliplatin was included for comparison as a reference substance, and was tested under the same conditions.
(§4) The cells were harvested from the culture flasks during the exponential growth phase, counted and 5 × 10^3 cells/well were seeded into 96-well culture plates. About 24 h later, after the cell adherence, each well was treated with 100 μL of tested complexes, which had been serially diluted two-fold in medium to concentrations ranging from 300 to 2.3 μM. All cells were incubated at 37 °C in an atmosphere containing 5% CO2 and at absolute humidity for 24 and 72 h. After incubation, the culture medium was removed from each well and MTT solution (5 mg/mL in phosphate buffered saline (PBS)) was added to each well and cells were incubated 4 h under culture conditions. The cell-free supernatants were suctioned off, and dimethyl sulfoxide (DMSO) (150 μL) and glycine buffer (20 μL) were added to dissolve the formazan crystals. The plates were shaken for 10 min. The optical density of each well was determined at 595 nm using a multiplate reader (Zenyth 3100, Anthos Labtec Instruments GmbH, Salzburg, Austria). Experiments were performed in triplicates and repeated in three independent series. The percentage of cell viability was determined by comparison with untreated controls according to formula: % of viable cells = (E − B)/(S − B) × 100, where B is for the background of the medium alone, S is for the total viability/spontaneous death of untreated target cells, and E is for the experimental well. The IC50 values were determined by plotting the percentage viability versus concentration on a logarithmic graph and reading off the concentration at which 50% of cells remained viable relative to the control.

HCT116 cells [3] = test: Annexin V-FITC/PI double staining, flow cytometry, HCT116; type: cell-based, human; details: HCT116, IC50 concentrations, 24 h
Procedure: (§5) For the detection of apoptosis, the Annexin V binding capacity of treated cells was examined by flow cytometry using an Annexin V-fluorescein isothiocyanate (FITC) Detection Kit (BD Pharmingen, San Jose, CA, USA) according to the manufacturer’s protocol. […] Following the incubation, all cells were trypsinized, washed in PBS, centrifuged, and resuspended in 100 μL of ice-cold binding buffer (10× binding buffer: 0.1 M Hepes/NaOH (pH 7.4), 1.4 M NaCl, 25 mM CaCl2) at a concentration of 1 × 10^6/mL. Annexin V-FITC and propidium iodide (PI) were added to the 100 μL of cell suspension and incubated for 15 min at room temperature (25 °C) in the dark. After incubation, 400 μL of 1× binding buffer was added to each tube and stained cells were analyzed within 1 h using a flow cytometer FACS Calibur (BD Biosciences, San Jose, CA, USA). Data were analyzed using FlowJo Software version VX [45]. Measurements were presented as density plots of Annexin V-FITC and PI stainings.

[4] = tested on: syngeneic CT26 mouse colon carcinoma; test: Heterotopic CT26 colon carcinoma growth in mice; type: in vivo, BALB/c mice; details: 2 mg/kg i.p.; for tumor weights after necropsy versus vehicle-treated mice: four times in total; for tumor growth inhibition (TGI): four times in total from day six, last day of the experiment; for necrosis fields in primary tumor, histology: hematoxylin and eosin
Procedure: In view of the proven cytotoxic effects of ruthenium(II) terpyridine complexes in vitro, the next goal of the present study was to examine the ability of tested compounds to inhibit murine colon cancer growth and progression in vivo. CT26 cells were heterotopically implanted into the shaved flank of the mice.
Male BALB/c mice of 6–8 weeks of age were used in all experiments. Mice were housed in a temperature-controlled environment (22–24 °C) with a 12 h light–dark cycle and were given standard laboratory food and water ad libitum. […] All experiments were approved (01-8461/2) by, and conducted in accord with, the Guidelines of the Animal Ethics Committee of the Faculty of Medical Sciences of the University of Kragujevac (Kragujevac, Serbia).
The size of primary CT26 colon tumors were assessed morphometrically using electronic calipers in two dimensions. The tumor volume was calculated as follows: tumor volume (mm^3) = (L × W^2)/2, where L is the longest and W the shortest […] of the tumor in millimeters. Results were expressed as means of tumor volumes ± SD. The percent tumor growth inhibition (TGI) was determined according to the formula, TGI(%) = (Vc − Vt)/(Vc − Vo) × 100, where Vc − Vt are the median of control and treated groups at the end of the study and Vo at the start.

SW480 cells = test: LDH release assay, SW480; type: cell-based, human; details: SW480, 300 μM, 24 h
Procedure: (§6) The cytotoxicity of used complexes was examined by an In Vitro Toxicology Assay Kit, Lactic Dehydrogenase based (Sigma-Aldrich, St. Lous, MO, USA). Cells were prepared and treated with complexes in the same manner as for the MTT assay. Additional wells were prepared as high control cells were treated with 1/10 volume of LDH Assay Lysis Solution for 45 min. Cells exposed to medium were used as low controls. After treatment, supernatant (50 μL) was transferred to new plate and incubated with an equivalent volume of Lactate Dehydrogenase Assay Mixture (which was prepared by mixing equal volumes of LDH Assay Substrate Solution, LDH Assay Dye Solution, and 1’ LDH Assay Cofactor Preparation. After incubating the plates in the dark for 30 min at room temperature, reaction was terminated by the addition of 10 μL of 1 N HCl to each well and data were acquired by spectrophotometry at 490 nm. The percentage of dead cells was calculated using the formula [44]:% of dead cells = (exp. value − low control)/(high control − low control) × 100.

[5] = tested on: SW480 (human colon carcinoma cell line); test: MTT assay cytotoxicity, SW480; type: cell-based
Procedure: as §3, §4

[6] = Systemic toxicity in CT26 tumor-bearing mice (body and organ weight, serum biochemistry, histopathology); details: 2 mg/kg i.p.
Procedure: Finally, in order to examine the safety of ruthenium(II) terpyridine complexes in vivo, the mice’s body weight was measured before tumor cell inoculation and at the end of experiment. The toxicity associated with ruthenium(II) terpyridine complexes treatment was assessed at biochemical and histopathological levels. The serum concentrations of the biochemical markers ALT, AST, urea, and creatinine were obtained to evaluate the liver and renal functions. In addition, the histopathological changes in the target organs, liver, heart, lungs, and kidneys were evaluated.
BALB/c mice bearing syngeneic CT26 mouse colon carcinoma were selected as the test system, as this experimental model has been extensively used for this kind of research in the literature [47]. For heterotopic colon carcinoma model, 1 × 10^6 CT26 cells suspended in 100 μL of DMEM were injected subcutaneously into the left flank of mice. Tumor-bearing mice were examined every 3 days for tumor development and progression and monitoring body weight. Animals were randomized into 4 groups with 6 tumor-bearing mice that were ear-tagged and followed-up individually throughout the study. The intraperitoneal administration of complexes or saline began on sixth day after post-tumor inoculation. Each drug was administered at doses of 2 mg/kg dissolved in 200 μL saline, twice weekly for four times in total (Scheme 2).
To study the potential side effects of ruthenium(II) terpyridine complexes, treated mice were monitored for weight loss. […] Blood samples were collected from abdominal aorta of each mouse in tubes without anticoagulant, and a separated serum was processed and analyzed by the chemistry analyzer Roche Cobas Mira Plus. The levels of serum urea, creatinine, and liver enzymes—aspartate aminotransferase (AST) and alanine aminotransferase (ALT)—were determined to assess the renal and hepatic function. After sacrificed, organ weights of the heart, liver, lungs, and kidneys, as well as the tumors, were determined for each animal, and the relative organ weight was calculated as % body weight. The tissue sections of various organs (heart, liver, lungs, and kidneys) and tumor were isolated for histopathological analysis. The tissues fixed in 4% paraformaldehyde were embedded in paraffin, cut into thin sections and mounted on glass slides. The tissue sections were stained with hematoxylin and eosin for microscopic examination.

[7] = tested on: HCT116 (human colon carcinoma cell line); test: MTT assay cytotoxicity, HCT116; type: cell-based
Procedure: as §3, §4

CT26 cells [8] = test: Annexin V-FITC/PI double staining, flow cytometry, CT26; type: cell-based, mouse; details: CT26, IC50 concentrations, 24 h
Procedure: as §5

HCT116 cells [9] = test: LDH release assay, HCT116; type: cell-based, human; details: HCT116, 300 μM, 24 h
Procedure: as §6

[10] = set-up: method as in PMID 26855406; details: cited from earlier work
[11] = tested on: HeLa, A549 and MRC-5 cells; set-up: method as in PMID 26855406, PMID 28088012; details: previously conducted study; read-out: IC50, range over HeLa, A549 and MRC-5; cited from earlier work
CT26 cells [12] = test: LDH release assay, CT26; type: cell-based, mouse; details: CT26, 300 μM, 24 h
Procedure: as §6

[13] = Behaviour in aqueous solution by 1H NMR in D2O; type: physicochemical; details: ambient temperature, forms aqua species
Procedure: (§7) These new resonances, which grew at the expense of those of the parent compound, were attributed to the aqua species [Ru(Cl-tpy)(en)(OH2)]^2+ (1aq) and [Ru(Cl-tpy)(dach)(OH2)]^2+ (2aq), respectively (Scheme 1).
(§8) The compounds [Ru(Cl-tpy)(en)Cl][Cl] […] All other chemicals were used as purchased without further purification. NMR spectra were recorded on a Varian Gemini 200 MHz spectrometer. All chemical shifts were referenced to TSP (trimethylsilylpropionic acid) at d = 0.00. All NMR spectra were run at 295 K.

[14] = Interaction with glutathione by 1H NMR in D2O; details: 10 mM in D2O, GSH added to equilibrated solution
Procedure: as §7
The addition of GSH to an equilibrated solution of Ru-1 (10 mM) in D2O induced very slow changes in the ^1H NMR spectrum (Figure 2). A new set of resonances, attributable to the thiolate adduct [Ru(Cl-tpy)(en)(GS-S)] (3), became apparent in the ^1H NMR spectrum after 6 h. […] (4).
as §8

HCT116 cells [15] = test: Cell cycle analysis, HCT116; type: cell-based, human; details: HCT116, IC50 doses, 24 h
Procedure: as §1, §2

lability of the chloride ligand in aqueous solution [13] | Compound | cell cycle disturbance (CT26 cells [1]) | IC50 ([2]; 24 h exposure) [µM] | IC50 ([2]; 72 h exposure) [µM] | late apoptosis in HCT116 cells, in words (HCT116 cells [3]) | tumor weights after necropsy versus vehicle-treated mice [4] | tumor growth inhibition (TGI) [4] [%] | necrosis fields in primary tumor, histology [4] | LDH levels (LDH release, % of dead cells) (SW480 cells) [%] | IC50 ([5]; 24 h exposure) [µM] | IC50 ([5]; 72 h exposure) [µM] | serum concentration of creatinine ([6]; tumor-bearing mice) | serum level of ALT ([6]; tumor-bearing mice) | serum level of AST compared to the control group ([6]; tumor-bearing mice) | IC50 ([7]; 24 h exposure) [µM] | IC50 ([7]; 72 h exposure) [µM] | LDH levels (LDH release, % of dead cells) (HCT116 cells [9]) [%] | IC50 [11] [µM] | further results
– | O=C1[O][Pt]2([NH][C@@H]3CCCC[C@H]3[NH]2)[O]C1=O [Oxaliplatin, oxaliplatin, reference compound] | G2/M phase arrest | 54.5 ± 4 | 25.2 ± 2 | induced late apoptosis | markedly lower | 51.39 | no greater than the necrosis field in untreated mice tumors | 2.20 | 100 ± 9 | 1.3 | did not affect | no difference | no difference | 9.7 ± 8 | 0.1 | 0 | – | apoptotic death of CT26 tumor cells, in words (CT26 cells [8]): moderately induced apoptotic death
very labile | Clc1cc(-c2ccccn2)nc(-c2ccccn2)c1.NCCN.[Cl-].[Cl-].[Ru+2] [Ru-1, [Ru(Cl-tpy)(en)Cl][Cl]] | G2/M phase arrest | 43.3 ± 3 | 50.9 ± 4 | induced late apoptosis | markedly lower | 53.41 | The largest part of the primary tumor of Ru-1-treated mice was necrotic | – | 50.4 ± 4 | 44.7 ± 4 | did not affect | – | – | 31.8 ± 2 | 19.1 ± 1 | 8.37 | 32.8 to 66.3 | log Po/w [10]: −1.33; LDH levels (LDH release, % of dead cells) (CT26 cells [12]): 36.43%; time after which thiolate adduct with GSH became apparent in 1H NMR [14]: 6 h; histological changes in kidney tissue [6]: hyaline cylinders and focal hyaline glomerular change; serum concentration of urea compared to saline-treated mice ([6]; tumor-bearing mice): did not affect; histological changes in heart tissue ([6]; in comparison with oxaliplatin and saline-treated mice): No significant histological changes; cell cycle disturbance (HCT116 cells [15]): G2/M phase arrest
very labile | Clc1cc(-c2ccccn2)nc(-c2ccccn2)c1.NC1CCCCC1N.[Cl-].[Cl-].[Ru+2] [Ru-2, [Ru(Cl-tpy)(dach)Cl][Cl]] | – | 167 ± 12 | 148 ± 11 | – | slightly smaller than tumors from the control group, but without statistical significance | 17.56 | larger compared to necrosis fields in the tumors of untreated mice and oxaliplatin-treated mice | 33.07 | 156 ± 12 | 86.4 ± 7 | – | no difference | no difference | 50.4 ± 5 | 20.4 ± 1 | 2.35 | 72.8 to 111 | serum urea concentration, excess compared to all other groups ([6]; tumor-bearing mice): ~ 3 units
